Assays:
[1] = Water solubility of the powder; type: physicochemical; details: in words
[2] = tested on: plasmid DNA damaged by OH° radical (hydrogen peroxide + UVB); test: "3D" test (Damaged DNA Detection): protection of DNA against OH° radicals; type: biochemical; details: for Specific protection: OH° radical
Description: The free-radical-scavenging effects of the phloridzin-rich polyphenolic fractions obtained according to the process of the invention were measured in vitro by the “3D” test (Damaged DNA Detection, Analytical Biochemistry, (1995), pp. 37-42).
The principle is based on repairing DNA lesions, the damaged DNA being used as a marker of protective efficacy of the test molecules with respect to free OH^∘ radicals: the reduction in lesions observed on the DNA is correlated with the trapping of the free radicals.
This test carried out on plasmid DNA allows the detection of genotoxic agents at the early stage of the lesion-mutation-cancerization process. Molecules or mixtures with antioxidant or free-radical-scavenging properties, which can thus protect a human cell from oxidative damage caused by reactive oxygenated species (ROSs), can thus be detected.
The protocol was as follows: • the target DNA was adsorbed onto sensitized wells and then incubated with genotoxic agents in the presence or absence of the polyphenolic extract to be tested (dissolved in an ethanol solution at 2% or in DMSO) or in the presence of catechin (control). In this test, the OH^∘ radical produced by homolytic cleavage of hydrogen peroxide was used as DNA-damaging genotoxic agent. The hydrogen peroxide was added to the wells, which were then irradiated with UVB rays (700 J/m^2). Furthermore, a positive repair control consisting of a plasmid DNA predamaged with ultraviolet C radiation was added; • a step of washing with ultrapure water and then with a dioxane solution at 20% in ultrapure water for 5 minutes at 30° C. with gentle stirring made it possible to remove the non-specific interactions between the sample and the test, due to the presence of macromolecules such as proteins that may interfere with the repair signal; • a repair step was performed in the presence of purified cell extracts (which contain the active enzymes of the various DNA lesion repair pathways) and of biotin-coupled modified nucleotides (dUTP). The repair of the lesions involved a phase of excision of the lesions followed by a resynthesis of the DNA fragment or of excised bases. […] The light signal observed and read on the luminometer was proportional to the amount of lesions repaired.
The percentage of protection observed in the presence of ROSs was calculated as the relative reduction of the lesional effect due to the OH^∘ species, that is to say: % protection={[RLU oxidant−RLU (oxidant+sample)]/RLU oxidant}×100 • where RLU=relative light units (arbitrary units of quantity of light).
The specific percentage of protection was corrected by the percentage of non-specific inhibition measured on the samples predamaged with UVC. It is an indication of the free-radical-scavenging activity due to the only added extracts.
The IC50 is the concentration in mg/ml of test product which gives 50% protective activity against the genotoxic agent OH^∘. The lower the value, the greater the antioxidant activity of the test product.

Compound	Water solubility [1]	Specific protection ([2]; concentration 0.016 mg/ml) [%]	Specific protection ([2]; concentration 0.06 mg/ml) [%]	Specific protection ([2]; concentration 0.25 mg/ml) [%]	Specific protection ([2]; concentration 1 mg/ml) [%]	IC50 ([2]; concentration giving 50% protective activity against the genotoxic agent OH°) [µg/mL]
O=C(CCc1ccc(O)cc1)c1c(O)cc(O)cc1O [phloretin]	very low solubility					
Catechin		16	28	52	65	240

From patent US7427418B2, “Phloridzin-rich phenolic fraction and use thereof as a cosmetic, dietary or nutraceutical agent” (Diana Ingredients S.A., priority 2001, dated 2008)
